Experiments:
[1] = tested on: MYC; assay: qRT-PCR of MYC expression; type: cell-based; conditions: qRT-PCR with specific primers
Description: FIGS. 1A-H. Viral protein sequence based cancer drug. (FIG. 1A) Discovery of hijacking transcription machinery in KSHV reactivating cells (Chen et al., J. Virol 2017). […] (FIG. 1B) Reporter assay. KSHV ORF50 overexpression inhibits MYC activation. (FIG. 1C) Chromatin immunoprecipitation with Mass Spectrometry. Proteins inducibly interact with both ORF50 and RNA polII are shown. […] (FIG. 1E) Mapping of interacting domain. GST-pull down was performed to identify NCoA2 binding domains. Purified NCoA2 was made from recombinant baculovirus infected cells and KSHV ORF50 deletion proteins were made in E. coli. Peptides are then generated as TAT-fusion for cell penetration. (FIG. 1F) ChIP-seq and RNA-seq. ChIP-seq was performed to identify NCOA2 target genes in primary effusion lymphoma cells. NCoA2 localization is highly associated with active genes and localizes with RNA pol II at enhancer regions. […] The qRT-PCR was performed with specific primers. (FIG. 1H) Gene set enrichment analyses (GSEA). RNA sequencing was performed with peptide-treated PEL cells. […] (FIG. 1I) The peptide drug. Wt peptide or mutant peptide was incubated in culture media. Forty-eight hours later, live cells were measured by applying MTS. Cell viability was compared with no-treated samples. No treated sample was set as 1.

[2] = tested on: CD19+ B cells; assay: CD19+ B cell response to sCD40L, live/dead staining; type: cell-based; conditions: 32 μM, sCD40L 1 μg/ml, 2 days
Description: CD19^+ B cells were isolated with magnetic beads from PBMC of a healthy donor (n=1). Cells were washed and cultured at 1×10^6/ml in a 96 well plate (200 μl/well in triplicates) without or with sCD40L (1 μg/ml) in the presence of MBK50 (16 or 32 μM) or mutant peptide (32 μM) for 2 days. Live cells were determined as shown in FIG. 3 left panel using live/dead-red staining (live cells are gated as red-staining negative population). […] The peptide drug targets actively replicating B-cells that is consistent with MBK50 targeting MYC.

[3] = tested on: SWI/SNF components; assay: ELISA-based binding assay with purified SWI/SNF components; conditions: biotin-conjugated peptide, HRP-streptavidin detection
From the text: FIG. 17(a) SDS-PAGE analysis of five SWI/SNF components individually prepared from baculovirus infected Sf9 cells. FIG. 17(b) A schematic illustration of ELISA assay to evaluate VGN50 and SWI/SNF interaction. FIG. 17(c) Analysis of VGN50 binding to SWI/SNF components by ELISA. Peptide binding measured as OD values at 450 nm are shown. Mean OD values were compared between the VGN50 and Mut-P in each concentration using unpaired t-test. **p<0.01, *p<0.05, NS: no significance. Data are presented as mean±SD.
To confirm the basis of VGN50 (a.k.a. MBK50) mechanism of action, the biochemical interaction between VGN50 and SWI/SNF proteins (i.e., VGN50 target molecules), were examined by ELISA-based binding assays using purified 5 individual SWI/SNF components prepared from baculovirus-infected Sf9 cells (FIG. 17a). Increasing concentrations of biotin-conjugated VGN50 or Mut-P were incubated in an ELISA plate coated with each SWI/SNF component, and the bound peptides were detected by HRP-streptavidin (FIG. 17b).

[4] = tested on: U937 cell line; assay: MTT assay, U937; type: cell-based; conditions: U973 monocytic leukemia cell line
Description: FIG. 6. Viral and cellular responses to K-Rta peptide; identification of VGN50. (a) Protein sequence alignment. FIG. 6(A) The effect of VGN50 on various cancer cell types. MTT assays were performed with the indicated cell lines treated with various VGN50 concentrations. The O.D. of mock-treated samples were set as 100%, and O.D. from detergent treated cells were set as 0%. Percentage viability+/−SD was calculated for each treatment (N=3 samples/treatment). FIG. 6(B) Viability assay with flow cytometry. Cell viability was measured in triplicate with live/dead staining and the cell killing effects on cancer cells was compared with normal peripheral blood mononuclear cells (PBMC) from three healthy donors. Results are presented as percentage viability+/−SD deviation (N=3 samples/group).
As shown in FIG. 6(a), multiple cancer cell lines were used for MTT assay to evaluate cancer cell killing efficacies of the MBK50 peptide at different concentrations (cell variability studies). […] Importantly, human peripheral blood mononuclear cells (PBMCs) from healthy donors were approximately 10-fold less sensitive to MBK-mediated killing compared to myeloid and lymphoid cancer cell lines (e.g., THP-1 and BCBL-1) as assessed by flow cytometry after live/dead staining (FIG. 6(b)). […]

## LSSILQGLYQLDT [MBK50]
[1]
  MYC expression: Down modulation
[2]
  live cell %: reduced
  total cell numbers: increased
[3]
  lowest concentration at which peptide bound the 5 SWI/SNF components: 50 nM
[4]
  sensitivity to cell killing: sensitive

— patent publication US12528840B2, “Transcription active complex targeting cancer drug from viral protein sequence” (The Regents of the University of California, priority 2020, dated 2026)
